The test system of series [1] is mice. Briefly: Forced swim test. Type of series: in vivo, mouse. Particulars: for immobility time: TrkB F616A knockin mice. The method, then: To explore whether an identified active compound has an antidepressant effect like BDNF, a forced swim test is conducted. Adult male mice (2-3 months old) are randomly submitted, without a pre-swim, to a forced swim test of 6 minutes with immobility recorded in the last 4 minutes. The mice are injected intraperitoneally for 5 days with saline, imipramine (20 mg/kg), amitryptyline (15 mg/kg), or an identified active compound (5 mg/kg). The mice are allowed to adapt to the test room for 2 days, and the mice are placed in a clear glass cylinder with a diameter of 16 cm, half-filled with clear water at 24° C.
To investigate whether deoxygedunin mimicked BDNF in suppressing depression-like symptoms, a forced swim test after subchronic treatment of the mice for 5 days with various drugs was conducted. […] To assess whether the behavior responses by 7,8-DHF and deoxygedunin were mediated by TrkB receptor, TrkB F616A knockin mice were used. The transgenic mice were subjected to saline or 1NMPP1 treatment, respectively.

Series [2] concerns the target T1, TrkB (Mus musculus, UniProt P15209).
T1 construct: Brain lysates were prepared and analyzed by immunoblotting; from tissue; host or cells: mouse brain
The experiment in a line: TrkB activation in BDNF cortex conditional knockout mice. The format is in vivo. As to conditions: 5 mg/kg i.p., sacrificed at 4 hours; wild-type and BDNF −/− mice. The text has this:
The Cortex-Specific Cre mouse line was previously described as “transgenic line C” (Chhatwal et al., Gene Ther. 14, 575-583 (2007)). Briefly, coding sequence for Cre-recombinase (Cre-IRES-DsRed2) was placed downstream of a 3 kb cholecystokinin (CCK) promoter, linearized, purified, and microinjected into the pronuclei of one-cell C57/BL6 embryos, which were then implanted into pseudopregnant C57/BL6 females. Following verification of gene expression in the different transgenic lines (Chhatwal et al., Nat. Neurosci. 9, 870-872 (2006)), the cortex-specific “line C” was crossed to a floxed-stop lacZ reporter mouse line (Soriano, Nat. Genet., 21, 70-71 (1999)) as well as the floxed BDNF mouse line (Rios et al., Mol. Endocrinol., 15, 1748-1757 (2001)). Region specific Cre gene expression and BDNF deletion were confirmed with in situ hybridization, x-gal staining for β-galactosidase expression, and Western blot for BDNF protein levels.
To examine whether deoxygedunin activating TrkB involved endogenous BDNF, BDNF conditional knockout mice with BDNF gene deletion limited to cortex (thus allowing normal development) were used. Deoxygedunin (5 mg/kg) was intraperitoneally injected into the BDNF cortex conditional knockout mice and the mice were sacrificed at 4 hours. […]

Series [3] has as its system TrkB. Briefly: TrkB activation in cortical neurons from knockout mouse pups. Type of series: cell-based. The method, then:
(§1) To determine whether an identified active compound selectively activates TrkB receptor and prevents neuronal cell death, cortical neurons are prepared from homozygous pups of TrkB +/− mice, which are mated to the same genotype. The activation of TrkB and down stream indicators of TrkB activation, such as Capase-3, are monitored. To further assess whether an identified active compound blocks neuronal apoptosis in a TrkB dependent manner, cortical neurons are prepared from homozygous pups of […], which are mated to the same genotype. Again, the activation of TrkB and down stream indicators of TrkB activation, such as Capase-3, are monitored.
(§2) Additionally, the spontaneous caspase-3 activation in […] was suppressed by deoxygedunin.

In series [4] the target is TrkA (Mus musculus, UniProt Q3UFB7). The experiment in a line: TrkA phosphorylation in mouse brain after i.p. injection. The format is in vivo. As to conditions: mice, 5 mg/kg i.p. Further details: endogenous in cells.
Series [5] relates to caspase-3. The experiment in a line: Caspase-3 activation in cortical neurons from knockout mouse pups. Type of series: cell-based. The method, then:
as §1, §2

For series [6], the system named is C57BL/6J mice. The experiment in a line: Tone-shock fear conditioning model. Type of series: in vivo, mouse. The method, then:
Following a two-day habituation to testing context, wild-type C57Bl/6J mice (N=28, male, 8-10 weeks old) were fear conditioned in eight identical startle response systems (SR-LAB, SDI) consisting of a nonrestrictive Plexiglas cylinder, 5.5 cm in diameter and 13 cm long, mounted on a Plexiglas platform which was located in a ventilated, sound-attenuated chamber. One hour prior to fear conditioning, mice received […] (N=14, 5 mg/kg, i.p.) or vehicle (N=14, 17% DMSO in PBS). Mice then received 5 tone—footshock pairings, with 30 second 12 kHz, 85 dB tones which co-terminated with the footshocks (intensity of 0.5 mA, 0.5 second) with a 5 minute intertrial interval (ITI), after which they were returned to their homecage. 24 and 48 hrs after training, the mice were tested for freezing in rodent modular test chambers with an inside area of 30.5 cm×24.1 cm×21.0 cm. Three minutes after placing the mouse in the test chamber, fifteen 30 second conditioned stimulus (CS) tones with an ITI of 1.5 min were delivered through a high-frequency speaker attached to the side of each chamber. Percentage time spent freezing during the CS presentations was calculated for each mouse using FreezeFrame (Product Number: ACT-100) (Coulbourn Instruments, Whitehall, Pa.).
To determine whether deoxygeduning would enhance learning in a whole animal model of learning and memory, in which BDNF-dependent TrkB activation was required, a tone-shock fear conditioning model was developed (see FIG. 26). Following habituation to the testing context, 28 adult wild-type, C57BL/6J mice were given systemic injections of deoxygedunin (N=14, 5 mg/kg, i.p.) or vehicle (N=14) 1 hour prior to being subjected to the tone-shock fear conditioning model. […] Mice were then tested, with no additional drug treatment, for cue-conditioned fear in the previously habituated context on the two days following fear acquisition. […] To further explore these effects, individual animals' freezing levels throughout the tone-fear testing sessions were examined. […]

The subject of series [7] is adult male rats. The experiment in a line: Transient middle cerebral artery occlusion (MCAO) stroke model. As to conditions: 2 h MCAO.

SMILES strings stand for the structures.

Sequence of TrkA (Q3UFB7 34-799): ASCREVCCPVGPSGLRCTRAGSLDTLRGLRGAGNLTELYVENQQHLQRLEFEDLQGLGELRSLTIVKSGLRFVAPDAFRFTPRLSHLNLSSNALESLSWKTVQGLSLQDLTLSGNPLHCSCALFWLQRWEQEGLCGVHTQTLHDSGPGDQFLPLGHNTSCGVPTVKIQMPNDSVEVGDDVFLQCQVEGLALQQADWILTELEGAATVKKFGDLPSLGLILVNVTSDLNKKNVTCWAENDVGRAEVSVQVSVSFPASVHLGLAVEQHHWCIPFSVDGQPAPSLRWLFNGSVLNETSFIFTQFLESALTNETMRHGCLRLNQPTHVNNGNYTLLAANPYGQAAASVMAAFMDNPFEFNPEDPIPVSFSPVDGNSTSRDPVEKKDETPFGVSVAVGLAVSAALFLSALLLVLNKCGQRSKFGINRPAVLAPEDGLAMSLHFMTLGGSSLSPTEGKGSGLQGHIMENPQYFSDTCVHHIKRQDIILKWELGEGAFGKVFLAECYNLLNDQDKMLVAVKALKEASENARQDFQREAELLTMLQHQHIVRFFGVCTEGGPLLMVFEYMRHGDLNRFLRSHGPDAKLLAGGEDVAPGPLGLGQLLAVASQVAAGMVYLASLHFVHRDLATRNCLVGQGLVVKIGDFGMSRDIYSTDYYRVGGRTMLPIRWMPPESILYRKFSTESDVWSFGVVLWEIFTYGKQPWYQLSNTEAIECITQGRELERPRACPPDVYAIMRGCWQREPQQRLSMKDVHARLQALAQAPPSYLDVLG
T1 sequence (P15209 32-821): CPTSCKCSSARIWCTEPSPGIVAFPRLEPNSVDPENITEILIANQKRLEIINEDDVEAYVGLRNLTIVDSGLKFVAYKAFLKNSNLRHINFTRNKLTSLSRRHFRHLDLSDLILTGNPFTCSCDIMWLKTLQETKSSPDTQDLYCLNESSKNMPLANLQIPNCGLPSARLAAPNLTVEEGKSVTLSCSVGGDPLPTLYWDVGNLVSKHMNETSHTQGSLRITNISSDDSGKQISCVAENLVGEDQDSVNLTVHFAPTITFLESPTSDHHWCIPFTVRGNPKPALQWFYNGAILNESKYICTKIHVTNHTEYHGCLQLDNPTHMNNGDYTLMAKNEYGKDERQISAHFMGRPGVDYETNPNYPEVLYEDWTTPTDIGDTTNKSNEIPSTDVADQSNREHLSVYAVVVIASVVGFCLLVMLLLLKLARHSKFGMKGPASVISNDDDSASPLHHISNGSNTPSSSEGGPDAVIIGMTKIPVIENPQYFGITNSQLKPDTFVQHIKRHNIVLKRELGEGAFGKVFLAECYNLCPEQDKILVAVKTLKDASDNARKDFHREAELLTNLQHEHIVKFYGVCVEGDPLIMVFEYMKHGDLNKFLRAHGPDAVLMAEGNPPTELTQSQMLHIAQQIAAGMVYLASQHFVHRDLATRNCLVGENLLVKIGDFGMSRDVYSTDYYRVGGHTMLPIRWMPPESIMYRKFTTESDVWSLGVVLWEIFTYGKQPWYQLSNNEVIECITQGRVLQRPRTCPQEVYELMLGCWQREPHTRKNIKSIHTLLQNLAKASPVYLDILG

On to `CC(=O)O[C@@H]1C[C@H]2C(C)(C)C(=O)C=C[C@]2(C)[C@H]2CC[C@]3(C)C(=CC(=O)O[C@H]3c3ccoc3)[C@@]21C` [deoxygedunin], for which the results for the immobility time entry in series [1] (TrkB blocked by 1NMPP1) and in series [1] (saline group) were “did not have a significant effect” and “substantially reduced the immobility time”, respectively. For the same molecule, in series [1] (mice, subchronic treatment 5 days, imipramine 20 mg/kg, deoxygedunin 5 mg/kg), the swimming immobility entry is “reduced the immobility”. Also, the TrkB activation result in series [2] is “TrkB activation occurred in both wild-type and BDNF −/− mice”; in series [3] (TrkB −/− cortical neurons), “not TrkB −/− neurons”; in series [3] (both wild-type and TrkC knockout neurons), “strongly provoked TrkB”; in series [3] (wild-type cortical neurons (pups of TrkB +/− mice)), “specifically activated TrkB”. Also, in series [4], the “TrkA phosphorylation in the brain” value is given as “not TrkA”. Moreover, the “blockade of glutamate-provoked caspase-3 activation” value was “not TrkB −/− neurons” in series [5] (TrkB −/− cortical neurons) and “substantially blocked” in series [5] (wild-type cortical neurons). In addition, the “spontaneous caspase-3 activation” value in series [5] (TrkC −/− neurons) is listed as “suppressed”. Besides, the “glutamate triggered caspase-3 activation” value in series [5] (wild-type and TrkC knockout neuron experiment) is on record as “diminished”. In series [6] (5 mg/kg i.p. 1 hour prior to conditioning, versus vehicle), the “shock reactivity during fear acquisition training” value is “no difference”. Moreover, the “average level of tone-dependent conditioned freezing versus vehicle” value in series [6] (5 mg/kg i.p. 1 hour prior to training, tested on the two following days) was “significantly different on both testing days”. Besides, the “increase in the level of freezing during the first set of CS trials” value in series [6] (5 mg/kg i.p., each testing day, versus vehicle) is listed as 2-3 fold. In addition, the “survival of ischemic insult and treatment” value in series [7] (5 mg/kg) is on record as “All animals included in the study survived”. The “infarct volumes (TTC stained sections)” value in series [7] (5 mg/kg 5 minutes prior to reperfusion, 24 hours after MCAO) was “significantly reduced infarct volumes”.

For the origin of these results see patent US8609870B2, “Treating various disorders using TrkB agonists” (Emory University, priority 2008, dated 2013).
